Several values for one entry are separate records, joined by “and”; a condition that tells them apart may be missing. Equal values may be shown once. Read-outs that look alike come from different tables or passages of the source.
How the values were obtained:
[1] = Pharmacokinetics and metabolites in rat plasma; type: in vivo, Sprague-Dawley rats (Rattus norvegicus); design: MB-905 in rat plasma (Fig4B source data, per animal) / MB-905 in rat plasma (Fig4A source data, per animal): unit not given here; conditions: for MB-905 in rat plasma (Fig4A source data, per animal): 1 mg/kg i.v.; for MB-905 in rat plasma (Fig4B source data, per animal): 30 mg/kg oral; for k el: read-out: Ke (converted)
[2] = MB-905 and metabolites in mouse lungs after single oral treatment; type: in vivo, mice; conditions: individual animals
Protocol: Fig. 5 Pharmacokinetic and pharmacodynamics in mice. […] Lung metabolites were detected consistently in terms of peak area and duration (c). Transgenic mice expressing the hACE2 receptor to SARS-CoV-2 entry at the age of 10–12 weeks were infected with 10^5 PFU intranasally and treated orally beginning 12–18 h after infection with 140 mg/kg/day. […] (e) are presented.
Pharmacokinetics in rodent plasma was performed in CD1 mice (Mus musculus, 20–30 g) and Sprague‒Dawley rats (Rattus norvegicus, 250–300 g) of both sexes. […] After oral or intravenous administration, blood samples were collected at times of 0.25, 0.5, 1, 2, 4, 8, and 24 and 0.083, 0.25, 0.5, 1, 2, and 4 h. Parameters such as area under the curve (AUC), time taken to reach the maximum concentration (Tmax), time taken for Cmax to drop in half (T 1/2), volume of distribution, clearance, elimination constant and bioavailability (F) were evaluated. Bioavailability was calculated using the following equation: F (%) = [(intravenous dose x oral AUC)/(oral dose × intravenous AUC)] × 100. […] Animals were treated orally with MB-905 as previously described. Animals were sacrificed at different time points after treatments, and lungs were immediately removed, placed in liquid nitrogen at −80 °C and processed for further analysis. For the analysis of plasma and lung supernatant, UPLC–MS/MS equipment was used.

[3] = tested on: SARS-CoV-2 Gamma VoC; conditions: hamster, in vivo, 140 mg/kg
[4] = tested on: SARS-CoV-2 gamma VoC; design: species or system K18-hACE2 mice (Mus musculus); conditions: mouse, in vivo
[5] = both sexes, Sprague-Dawley, rat, plasma, iv, rats, 1 mg/kg (i.v.)
[6] = both sexes, Sprague-Dawley, rat, plasma, po, rats, 30 mg/kg (p.o.)

c1coc(CNc2ncnc3[nH]cnc23)c1 [MB-905, N6-furfurylaminopurine]
MB-905 in rat plasma (Fig4A source data, per animal) ([1]; 0.083 h): 122.29 and 142.1 and 107.27 and 127.39 and 93.94
MB-905 in rat plasma (Fig4A source data, per animal) ([1]; 0.25 h): 82.46 and 129.29 and 128.28 and 120.23 and 112.61
MB-905 in rat plasma (Fig4A source data, per animal) ([1]; 0.5 h): 65.31 and 60.03 and 69.73 and 52.81 and 69.66
MB-905 in rat plasma (Fig4A source data, per animal) ([1]; 1 h): 28.25 and 16.64 and 9.33 and 14.09 and 7.19 and 13.17
MB-905 in rat plasma (Fig4A source data, per animal) ([1]; 2 h): 1.74 and 1.82 and 1.9 and 1.56 and 1.91
MB-905 in rat plasma (Fig4A source data, per animal) ([1]; 3 h): 0.61 and 1.31 and 1.15 (3×) and 1.21
MB-905 in rat plasma (Fig4B source data, per animal) ([1]; 0.25 h): 397.32 and 362.53 and 415.61 and 353.44
MB-905 in rat plasma (Fig4B source data, per animal) ([1]; 1 h): 263.22 and 231.26 and 292.83 and 229.84
MB-905 in rat plasma (Fig4B source data, per animal) ([1]; 2 h): 88.19 and 121.59 and 183.67 and 211.01 and 229.72
MB-905 in rat plasma (Fig4B source data, per animal) ([1]; 3 h): 243.45 and 113.36 and 86.5 and 220.24 and 141.51
MB-905 in rat plasma (Fig4B source data, per animal) ([1]; 5 h): 154.28 and 65.58 and 86.37 and 126.88 and 27.06
MB-905 in rat plasma (Fig4B source data, per animal) ([1]; 8 h): 116.98 and 84.1 and 84.26 and 4.12 and 35.08
MB-905 in rat plasma (Fig4B source data, per animal) ([1]; 12 h): 1.46 and 1.1 and 5.1 and 3.6 and 2.01
bioavailability ([1]; both sexes, Sprague-Dawley, rat, plasma, iv, 1 mg/kg, rats, 1 mg/kg (i.v.), read-out: F): 100%
AUC [1, 5]: 77.1 ng·h/mL
AUC(0-t) [1, 5]: 77.1 ng·h/mL
Cmax [1, 5]: 124 ng/mL
Tmax [1, 5]: 4.98 min
clearance [1, 5]: 214 mL/min/kg
half-life [1, 5]: 33.6 min
k el [1, 5]: 0.000342 s⁻¹
Vd ([1]; both sexes, Sprague-Dawley, rat, plasma, iv, rats, 1 mg/kg (i.v.), read-out: Vz): 10.4 L/kg
bioavailability ([1]; both sexes, Sprague-Dawley, rat, plasma, po, 30 mg/kg, rats, 30 mg/kg (p.o.), read-out: F): 64.7%
bioavailability ([1]; both sexes, Sprague-Dawley, rat, plasma, po, 30 mg/kg, rats, read-out: Oral bioavailability): > 50%
AUC [1, 6]: 1500 ng·h/mL
AUC(0-t) [1, 6]: 1500 ng·h/mL
Cmax [1, 6]: 370 ng/mL
Tmax [1, 6]: 15 min
half-life [1, 6]: 229 min
k el [1, 6]: 5e-05 s⁻¹
CL ([1]; rats, 30 mg/kg (p.o.)): 330.53 mL/min/kg
Vz ([1]; rats, 30 mg/kg (p.o.)): 109.18 L/kg
MB-905 level (Fig5B) ([2]; 140 mg/kg, 0.25 h): 1864 and 2462 and 2409
MB-905 level (Fig5B) ([2]; 140 mg/kg, 1 h): 2448 and 1951
MB-905 level (Fig5B) ([2]; 140 mg/kg, 3 h): 1209 and 771 and 2655
MB-905 level (Fig5B) ([2]; 140 mg/kg, 8 h): 1105 and 110 and 400
MB-905 level (Fig5B) ([2]; 140 mg/kg, 12 h): 0
MB-905 level (Fig5B) ([2]; 500 mg/kg, 0.25 h): 5246 and 5640 and 6065
MB-905 level (Fig5B) ([2]; 500 mg/kg, 1 h): 4146 and 4252 and 4427
MB-905 level (Fig5B) ([2]; 500 mg/kg, 3 h): 3576 and 2579 and 2846
MB-905 level (Fig5B) ([2]; 500 mg/kg, 8 h): 3077 and 895 and 2729
MB-905 level (Fig5B) ([2]; 500 mg/kg, 12 h): 575 and 53 and 0
Tolerability (body weight) [3]: tolerated
survival event code per animal (Fig5D) [4]: 1 (4×) and 0 (2×)
Body weight ([4]; 140 mg/kg/day): recovered their body weight
Survival ([4]; 140 mg/kg/day): survived after two weeks
